The source of these data is US9999619B2, “Piperidin-4-yl azetidine derivatives as JAK1 inhibitors” (Incyte Corporation, priority 2010, dated 2018).

What all share (format): biochemical
Test [1] deals with Jak2 (a.a. 828-1132) (Homo sapiens (Human), UniProt O60674). In words: In vitro JAK kinase assay (HTRF, phosphorylation of a biotinylated peptide), JAK2. Conditions: measured at 1 mM ATP. The essentials: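 N-terminal His-tagged catalytic domains, baculovirus-expressed in insect cells, phosphorylated a biotinylated peptide for 1 hr at room temperature. EDTA stop was followed by SA-APC and Eu-Py20 antibody for 40 minutes, with phosphopeptide read by HTRF.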
A general note: In TR-FRET formats the signal depends on donor and acceptor labels being close together.

The target of test [2] is human JAK1 (a.a. 837-1142). As to the kind of experiment: In vitro JAK kinase assay (HTRF, phosphorylation of a biotinylated peptide), JAK1. The conditions noted are these: ratio of JAK2 IC50 to JAK1 IC50, measured at 1 mM ATP. The procedure:
(§1) Compounds herein were tested for inhibitory activity of JAK targets according to the following in vitro assay described in Park et al., Analytical Biochemistry 1999, 269, 94-104. The catalytic domains of human JAK1 (a.a. 837-1142), Jak2 (a.a. 828-1132) and Jak3 (a.a. 781-1124) with an N-terminal His tag were expressed using baculovirus in insect cells and purified. The catalytic activity of JAK1, JAK2 or JAK3 was assayed by measuring the phosphorylation of a biotinylated peptide. The phosphorylated peptide was detected by homogenous time resolved fluorescence (HTRF). […] Reactions were carried out at room temperature for 1 hr and then stopped with 20 μL 45 mM EDTA, 300 nM SA-APC, 6 nM Eu-Py20 in assay buffer (Perkin Elmer, Boston, Mass.). Binding to the Europium labeled antibody took place for 40 minutes and HTRF signal was measured on a Fusion plate reader (Perkin Elmer, Boston, Mass.).

Test [3] concerns the target human JAK1 (a.a. 837-1142) (Homo sapiens, UniProt P23458). The description is as above. Conditions: measured at 1 mM ATP. How it is done: as §1

Sequence of Jak2 (a.a. 828-1132) (O60674 828-1132): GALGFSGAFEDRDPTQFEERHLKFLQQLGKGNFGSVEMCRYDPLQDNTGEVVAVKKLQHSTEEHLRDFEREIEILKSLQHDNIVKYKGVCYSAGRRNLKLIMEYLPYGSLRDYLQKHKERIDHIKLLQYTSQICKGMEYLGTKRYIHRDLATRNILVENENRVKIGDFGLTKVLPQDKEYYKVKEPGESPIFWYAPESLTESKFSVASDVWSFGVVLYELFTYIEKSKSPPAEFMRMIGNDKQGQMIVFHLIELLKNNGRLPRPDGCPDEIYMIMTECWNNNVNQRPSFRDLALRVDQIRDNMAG

Turning to `N#CCC1(n2cc(-c3ncnc4[nH]ccc34)cn2)CN(C2CCN(C(=O)c3cccc(Br)c3)CC2)C1` [Example 20, {1-[1-(3-bromobenzoyl)piperidin-4-yl]-3-[4-(7H-pyrrolo[2,3-d]pyrimidin-4-yl)-1H-pyrazol-1-yl]azetidin-3-yl}acetonitrile], the 50% inhibitory concentration (IC50) (usually the concentration at which inhibition is half-maximal) in test [1] is ≤ 10 nM; in test [3] it was ≤ 5 nM. The “IC50 Ratio JAK2/JAK1” value in test [2] came to 4.2.

For `N#CCC1(n2cc(-c3ncnc4[nH]ccc34)cn2)CN(C2CCN(C(=O)c3cccc(OC(F)(F)F)c3)CC2)C1` [Example 21, (3-[4-(7H-pyrrolo[2,3-d]pyrimidin-4-yl)-1H-pyrazol-1-yl]-1-{1-[3-(trifluoromethoxy)benzoyl]piperidin-4-yl}azetidin-3-yl)acetonitrile], the IC50 in test [1] fell in the range of 10 to 50 nM; in test [3] it was 5 to 20 nM. In test [2], the “IC50 Ratio JAK2/JAK1” value turned out to be 3.2.

With `N#CCC1(n2cc(-c3ncnc4[nH]ccc34)cn2)CN(C2CCN(C(=O)c3cccc(C(F)(F)F)c3)CC2)C1` [Example 22, (3-[4-(7H-pyrrolo[2,3-d]pyrimidin-4-yl)-1H-pyrazol-1-yl]-1-{1-[3-(trifluoromethyl)benzoyl]piperidin-4-yl}azetidin-3-yl)acetonitrile], the results for the IC50 in test [1] and in test [3] were 10 to 50 nM and 5 to 20 nM, respectively. In addition, the “IC50 Ratio JAK2/JAK1” value in test [2] is listed as 3.2.

`N#CCC1(n2cc(-c3ncnc4[nH]ccc34)cn2)CN(C2CCN(C(=O)c3cc(F)cc(C(F)(F)F)c3)CC2)C1` [Example 23, {1-{1-[3-fluoro-5-(trifluoromethyl)benzoyl]piperidin-4-yl}-3-[4-(7H-pyrrolo[2,3-d]pyrimidin-4-yl)-1H-pyrazol-1-yl]azetidin-3-yl}acetonitrile]: the IC50 in test [1] is 10 to 50 nM; in test [3] it was ≤ 5 nM. The “IC50 Ratio JAK2/JAK1” value in test [2] was 6.7.

Take `N#CCC1(n2cc(-c3ncnc4[nH]ccc34)cn2)CN(C2CCN(C(=O)c3cc(Cl)cc(Cl)c3)CC2)C1` [Example 24, {1-[1-(3,5-dichlorobenzoyl)piperidin-4-yl]-3-[4-(7H-pyrrolo[2,3-d]pyrimidin-4-yl)-1H-pyrazol-1-yl]azetidin-3-yl}acetonitrile]: the IC50 in test [1] is ≤ 10 nM; in test [3] it was ≤ 5 nM. For the same compound, in test [2], the “IC50 Ratio JAK2/JAK1” value is 6.6.

Consider `N#CCC1(n2cc(-c3ncnc4[nH]ccc34)cn2)CN(C2CCN(C(=O)c3cccc(F)c3)CC2)C1` [Example 25, {1-[1-(3-fluorobenzoyl)piperidin-4-yl]-3-[4-(7H-pyrrolo[2,3-d]pyrimidin-4-yl)-1H-pyrazol-1-yl]azetidin-3-yl}acetonitrile], for which the results for the IC50 in test [1] and in test [3] were 10 to 50 nM and ≤ 5 nM, respectively. The “IC50 Ratio JAK2/JAK1” value in test [2] was found to be 5.8.

In the case of `COc1cc(C(=O)N2CCC(N3CC(CC#N)(n4cc(-c5ncnc6[nH]ccc56)cn4)C3)CC2)ccc1F` [Example 26, {1-[1-(4-fluoro-3-methoxybenzoyl)piperidin-4-yl]-3-[4-(7H-pyrrolo[2,3-d]pyrimidin-4-yl)-1H-pyrazol-1-yl]azetidin-3-yl}acetonitrile], the IC50 in test [1] is ≤ 10 nM; in test [3], ≤ 5 nM. In test [2], the “IC50 Ratio JAK2/JAK1” value stood at 3.3.

Take `COc1ccc(F)c(C(=O)N2CCC(N3CC(CC#N)(n4cc(-c5ncnc6[nH]ccc56)cn4)C3)CC2)c1` [Example 27, {1-[1-(2-fluoro-5-methoxybenzoyl)piperidin-4-yl]-3-[4-(7H-pyrrolo[2,3-d]pyrimidin-4-yl)-1H-pyrazol-1-yl]azetidin-3-yl}acetonitrile]: the values for the IC50 in test [1] and in test [3] were 50 to 100 nM and 5 to 20 nM, respectively. For the same compound, the “IC50 Ratio JAK2/JAK1” value in test [2] is recorded as 5.1.

As to `N#CCC1(n2cc(-c3ncnc4[nH]ccc34)cn2)CN(C2CCN(C(=O)c3cc(F)cc(Cl)c3)CC2)C1` [Example 28, {1-[1-(3-chloro-5-fluorobenzoyl)piperidin-4-yl]-3-[4-(7H-pyrrolo[2,3-d]pyrimidin-4-yl)-1H-pyrazol-1-yl]azetidin-3-yl}acetonitrile], the concentration for half-maximal inhibition (IC50) is ≤ 10 nM in test [1] and ≤ 5 nM in test [3]. Moreover, the “IC50 Ratio JAK2/JAK1” value in test [2] is given as 8.5.

As for `N#CCC1(n2cc(-c3ncnc4[nH]ccc34)cn2)CN(C2CCN(C(=O)c3cc(F)cc(Br)c3)CC2)C1` [Example 29, {1-[1-(3-bromo-5-fluorobenzoyl)piperidin-4-yl]-3-[4-(7H-pyrrolo[2,3-d]pyrimidin-4-yl)-1H-pyrazol-1-yl]azetidin-3-yl}acetonitrile], the 50% inhibitory concentration (IC50) in test [1] is ≤ 10 nM; in test [3] it was ≤ 5 nM. The “IC50 Ratio JAK2/JAK1” value in test [2] is 7.2.

As for `N#CCC1(n2cc(-c3ncnc4[nH]ccc34)cn2)CN(C2CCN(C(=O)c3cc(Cl)sc3Cl)CC2)C1` [Example 30, {1-{1-[(2,5-dichloro-3-thienyl)carbonyl]piperidin-4-yl}-3-[4-(7H-pyrrolo[2,3-d]pyrimidin-4-yl)-1H-pyrazol-1-yl]azetidin-3-yl}acetonitrile], the IC50 in test [1] was ≤ 10 nM; in test [3], ≤ 5 nM. Also, the “IC50 Ratio JAK2/JAK1” value in test [2] is given as 2.8.

As to `COc1cccc(C(=O)N2CCC(N3CC(CC#N)(n4cc(-c5ncnc6[nH]ccc56)cn4)C3)CC2)c1` [Example 31, {1-[1-(3-methoxybenzoyl)piperidin-4-yl]-3-[4-(7H-pyrrolo[2,3-d]pyrimidin-4-yl)-1H-pyrazol-1-yl]azetidin-3-yl}acetonitrile], the concentration for half-maximal inhibition (IC50) is ≤ 10 nM in test [1] and ≤ 5 nM in test [3]. Besides, in test [2], the “IC50 Ratio JAK2/JAK1” value was determined as 1.9.

Turning to `COc1c(F)c(F)cc(C(=O)N2CCC(N3CC(CC#N)(n4cc(-c5ncnc6[nH]ccc56)cn4)C3)CC2)c1F` [Example 32, {3-[4-(7H-pyrrolo[2,3-d]pyrimidin-4-yl)-1H-pyrazol-1-yl]-1-[1-(2,4,5-trifluoro-3-methoxybenzoyl)piperidin-4-yl]azetidin-3-yl}acetonitrile], the half-maximal inhibitory concentration (IC50) was 10 to 50 nM in test [1] and ≤ 5 nM in test [3]. The “IC50 Ratio JAK2/JAK1” value in test [2] turned out to be 4.4.

Regarding `COc1cc(OC)cc(C(=O)N2CCC(N3CC(CC#N)(n4cc(-c5ncnc6[nH]ccc56)cn4)C3)CC2)c1` [Example 33, {1-[1-(3,5-dimethoxybenzoyl)piperidin-4-yl]-3-[4-(7H-pyrrolo[2,3-d]pyrimidin-4-yl)-1H-pyrazol-1-yl]azetidin-3-yl}acetonitrile], the IC50 was ≤ 10 nM in test [1] and ≤ 5 nM in test [3]. In test [2], the “IC50 Ratio JAK2/JAK1” value came to 0.5.

For `N#CCC1(n2cc(-c3ncnc4[nH]ccc34)cn2)CN(C2CCN(C(=O)c3ccc(F)c(Cl)c3)CC2)C1` [Example 34, {1-[1-(3-chloro-4-fluorobenzoyl)piperidin-4-yl]-3-[4-(7H-pyrrolo[2,3-d]pyrimidin-4-yl)-1H-pyrazol-1-yl]azetidin-3-yl}acetonitrile], the IC50 in test [1] is 10 to 50 nM; in test [3], 5 to 20 nM. For the same compound, the “IC50 Ratio JAK2/JAK1” value in test [2] was 6.0.

On to `N#CCC1(n2cc(-c3ncnc4[nH]ccc34)cn2)CN(C2CCN(C(=O)c3ccc(F)c(F)c3)CC2)C1` [Example 35, {1-[1-(3,4-difluorobenzoyl)piperidin-4-yl]-3-[4-(7H-pyrrolo[2,3-d]pyrimidin-4-yl)-1H-pyrazol-1-yl]azetidin-3-yl}acetonitrile], for which the IC50 in test [1] was 10 to 50 nM; in test [3] it was ≤ 5 nM. Besides, the “IC50 Ratio JAK2/JAK1” value in test [2] was found to be 6.9.

With `COc1cc(F)cc(C(=O)N2CCC(N3CC(CC#N)(n4cc(-c5ncnc6[nH]ccc56)cn4)C3)CC2)c1` [Example 36, {1-[1-(3-fluoro-5-methoxybenzoyl)piperidin-4-yl]-3-[4-(7H-pyrrolo[2,3-d]pyrimidin-4-yl)-1H-pyrazol-1-yl]azetidin-3-yl}acetonitrile], the IC50 in test [1] was ≤ 10 nM; in test [3] it was ≤ 5 nM. For the same compound, in test [2], the “IC50 Ratio JAK2/JAK1” value is 2.3.

As for `COc1cc(C(=O)N2CCC(N3CC(CC#N)(n4cc(-c5ncnc6[nH]ccc56)cn4)C3)CC2)cc(Cl)n1` [Example 37, {1-[1-(2-chloro-6-methoxyisonicotinoyl)piperidin-4-yl]-3-[4-(7H-pyrrolo[2,3-d]pyrimidin-4-yl)-1H-pyrazol-1-yl]azetidin-3-yl}acetonitrile], the half-maximal inhibitory concentration (IC50) in test [1] was ≤ 10 nM; in test [3], ≤ 5 nM. In test [2], the “IC50 Ratio JAK2/JAK1” value came out at 2.1.

As to `COc1ccc(F)cc1C(=O)N1CCC(N2CC(CC#N)(n3cc(-c4ncnc5[nH]ccc45)cn3)C2)CC1` [Example 38, {1-[1-(5-fluoro-2-methoxybenzoyl)piperidin-4-yl]-3-[4-(7H-pyrrolo[2,3-d]pyrimidin-4-yl)-1H-pyrazol-1-yl]azetidin-3-yl}acetonitrile], the half-inhibitory concentration (IC50) in test [1] was ≤ 10 nM; in test [3], ≤ 5 nM. Further, the “IC50 Ratio JAK2/JAK1” value in test [2] amounted to 5.7.

As to `COc1cccc(F)c1C(=O)N1CCC(N2CC(CC#N)(n3cc(-c4ncnc5[nH]ccc45)cn3)C2)CC1` [Example 39, {1-[1-(2-fluoro-6-methoxybenzoyl)piperidin-4-yl]-3-[4-(7H-pyrrolo[2,3-d]pyrimidin-4-yl)-1H-pyrazol-1-yl]azetidin-3-yl}acetonitrile], the half-inhibitory concentration (IC50) is ≤ 10 nM in test [1] and ≤ 5 nM in test [3]. For the same compound, the “IC50 Ratio JAK2/JAK1” value in test [2] turned out to be 3.2.
